Measurements reported in patent US20250084065A1, “INHIBITING MONOACYLGLYCEROL LIPASE (MAGL)” (Psy Therapeutics, Inc., priority 2021, published 2025).
Where two headings read alike, the source gives them in different places.

What was measured:
human MAGL = target: T1, human MAGL (Homo sapiens, UniProt Q99685); experiment: MAGL inhibition potency assay with 4-nitrophenyl acetate (4NPA) substrate, absorbance 405 nm; format: biochemical; settings: read-out: MAGL Potency (Detection Method)
T1 construct: recombinant MAGL enzyme (aa 2-303 RBC, internal preparation)
T1 sequence (Q99685 2-303): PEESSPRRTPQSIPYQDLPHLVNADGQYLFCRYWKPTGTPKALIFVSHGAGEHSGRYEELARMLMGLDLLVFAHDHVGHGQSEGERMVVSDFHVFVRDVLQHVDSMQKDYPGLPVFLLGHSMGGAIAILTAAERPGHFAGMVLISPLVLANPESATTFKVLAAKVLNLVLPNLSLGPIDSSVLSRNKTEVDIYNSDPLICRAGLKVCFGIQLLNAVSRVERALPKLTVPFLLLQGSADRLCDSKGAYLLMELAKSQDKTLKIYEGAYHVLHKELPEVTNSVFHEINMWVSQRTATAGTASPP
Description: Example 22: Measuring MAGL Inhibition Potency (IC50) The potency of certain compounds for inhibiting MAGL were obtained using the following assays. The monoacylglycerol lipase inhibitor screening assay kit from Cayman Chemical was used to measure the MAGL potency for the compounds in Table 6 and Table 7. Cayman's Monoacylglycerol Lipase Inhibitor Screening Assay provides a method for screening human MAGL inhibitors. MAGL hydrolyzes 4-nitrophenylacetate resulting in a yellow product, 4-nitrophenol, with an absorbance of 405-412 nm. MAGL Inhibition was measured by the following assay. Monoacylglycerol Lipase (MAGL) inhibition was measured using recombinant MAGL enzyme (aa 2-303 RBC, internal preparation) and the substrate 4-Nitrophenyl acetate (4NPA) (Sigma-Aldrich, N8130). Hydrolysis of the substrate in the presence of the enzyme was measured by absorbance at 405 nm. 10 μL of assay buffer (10 mM Tris pH 7.5, 1 mM EDTA, 0.9% DMSO) was added to a black 384-well non-binding plate with clear bottom (Greiner, 781906) for each reaction. […] DMSO control wells were included for reference. A 10.8 nM (1.8×) MAGL mix in assay buffer was prepared, with 25 μL added to each reaction well, for a final assay concentration of 6 nM. No enzyme wells received 25 μL of buffer. Plate was incubated at room temperature for 30 minutes. 35 mM solution of 4NPA in methanol was prepared daily. A 4.5×4NPA substrate solution was prepared in assay buffer and 10 μL was added to each reaction well, for a final assay concentration of 0.25 mM. Plate was spun for […] at 100 rpm before measuring absorbance using a CLARIOstar plate reader (BMG Labtech). A kinetic reading at 405 nm was done every minute for 30 minutes. Data was analyzed using the linear slope of the reaction progress curve and the average of the no-enzyme wells (background) was subtracted from the data. The background-subtracted slope data was converted to % activity using the average of wells with enzyme and DMSO vehicle. IC50 were calculated using GraphPad software (Sigmoidal dose response, variable slope equation). […] Table S provides potency measurements of MAGL inhibition measured using the Potency Assay of Example 22 above, with the following modifications described in Table C. [table]

[1] = Pharmacokinetic study of compounds in mice (brain exposure); format: in vivo, male C57BL/6 mice; settings: oral; for AUC(0-t) / Cmax: male, C57BL/6, mouse, 5 mg/kg, Protocols B-E
Method: Example 25: Pharmacokinetic Study of Compounds in Mice
Healthy male C57BL/6 mice (8-12 weeks old) weighing between 17 to 35 g were procured from Global, India. Temperature and humidity were maintained at 22±3° C. and 30-70%, respectively and illumination was controlled to give a sequence of 12 hr light and 12 hr dark cycle. Temperature and humidity were recorded by auto-controlled data logger system. All the animals were provided laboratory rodent diet. Reverse osmosis water treated with ultraviolet light was provided ad libitum.
Protocol A: Twenty-four male mice were divided into two groups as; Group 1: 30 mg/kg/IP; Plasma and brain; Number of animals=12; Animal #1-12. Group 2: 30 mg/kg/PO; Plasma and brain; Number of animals=12; Animal #13-24. Animals in Group 1 were administered intraperitoneally with solution formulation of PSY-05-00074-001 in 5% NMP, 5% Solutol HS-15 and 90% normal saline at […] dose. Animals in Group 2 were administered orally with solution formulation of PSY-05-00074-001 in 5% NMP, 5% Solutol HS-15 and 90% normal saline at 30 mg/kg dose. Blood samples (approximately 60 μL) were collected under light isoflurane anesthesia from retro orbital plexus at 0.25, 0.5, 1, 2, 4 and 8 hr (IP and PO). Plasma samples were separated by centrifugation of whole blood and stored below −70° C. until bioanalysis. Immediately after collection of blood from intraperitoneal and oral group animals, animals were euthanized with excess CO2 and brain samples were collected from set of two mice at each time point. Brain samples were divided into two parts. Half brain samples were homogenized using ice-cold phosphate buffer saline (pH-7.4) and homogenates were stored below −70±10° C. until analysis. Total homogenate volume was three times the brain weight. Other part of brain was stored below −70±10° C. for further analysis. All samples were processed for analysis by protein precipitation using acetonitrile and analyzed with fit-for-purpose LC/MS/MS method (LLOQ-2.02 ng/mL for plasma and 6.06 ng/g for brain). Pharmacokinetic parameters were calculated using the non-compartmental analysis tool of Phoenix WinNonlin®.
Protocol B: Thirty six mice were included into the study and divided in to three groups as Group 1 (n=12), Group 2 (n=12) and Group 3 (n=12) with n=2 mice per time-point design. Animals in Group 1 were administered intravenously with solution formulation of PSY-05-00414-001 at 5 mg/kg dose. Animals in Group 2 were administered orally with solution formulation of PSY-05-00414-001 at a dose of 5 mg/kg. Animals in Group 3 were administered intraperitoneally with solution formulation of PSY-05-00414-001 at 5 mg/kg dose. The formulation vehicle for all the three groups was 5% NMP, 5% Solutol HS-15 and 90% normal saline. Blood samples (approximately 60 μL) were collected under light isoflurane anesthesia from two mice at 0.25, 0.5, 1, 2, 4 and 8 h. Plasma was harvested by centrifugation of blood and stored at −70±10° C. until analysis. After blood collection, brain was perfused and isolated at 0.25, 0.5, 1, 2, 4 and 8 h. Brain samples were dipped thrice in ice-cold phosphate buffer saline, blotted dry and cut in to two equal portion. Half-brain samples from each time-point were weighed and homogenized using ice-cold phosphate buffer saline with twice volume of brain weight making the total homogenate three volumes and stored below −70±10′° C. until analysis. Remaining half-portions of brain samples was snap freeze and kept in −70±10° C. until further confirmation from client. Plasma and brain samples were quantified by fit-for-purpose LC-MS/MS method (LLOQ: 1.01 ng/mL for plasma and 2.02 ng/mL for brain).
Protocol C: Fifty four male mice were included in study and divided in to three groups as Group 1 (n=18), Group 2 (n=18) and Group 3 (n=18) with 3 mice/time point design. […]

[2] = Method 13: Reaction Biology MAGL enzyme prep, 12 nM enzyme
[3] = Method 12: Reaction Biology MAGL enzyme prep, 15 nM enzyme

SMILES: Cc1ccc(F)cc1-c1cc(C2CC2)nn1C1CC2(C1)CN(C(=O)c1cc(O)ccc1F)C2 (single isomer, unassigned) [Compound 490, (6-(3-cyclopropyl-5-(5-fluoro-2-methylphenyl)-1H-pyrazol-1-yl)-2-azaspiro [3.3]heptan-2-yl) (2-fluoro-5-hydroxyphenyl) methanone]
- IC50 (human MAGL; [2]): 50 to 150 nM

SMILES: O=C(c1cc(O)ccc1F)N1CC2(CC(n3ncc(C(F)(F)F)c3-c3ccccc3F)C2)C1 (single isomer, unassigned) [Compound 472]
- IC50 (human MAGL; [3]): 50 to 150 nM

SMILES: O=C(c1ccc(F)cc1OC1CC1)N1CC2(CC(n3nc(-c4ccccc4C(F)(F)F)cc3C(F)(F)F)C2)C1 (single isomer, unassigned) [Compound 451, (2-cyclopropoxy-4-fluorophenyl)(6-{5-(trifluoromethyl)-3-[o-(trifluoromethyl)phenyl]-1-pyrazolyl}-2-aza-2-spiro[3.3]heptyl)methanone]
- AUC(0-t) [1]: 1200 ng·h/mL
- Cmax [1]: 271 ng/g
- IC50 (human MAGL; Method 6: Reaction Biology MAGL enzyme prep, 6 nM enzyme): 50 to 150 nM

SMILES: Cc1cnn(C2CC3(C2)CN(C(=O)c2cc(O)ccc2F)C3)c1-c1cc(F)ccc1F (single isomer, unassigned) [Compound 476, (6-(5-(2,5-Difluorophenyl)-4-methyl-1H-pyrazol-1-yl)-2-azaspiro [3.3]heptan-2-yl) (2-fluoro-5-hydroxyphenyl) methanone]
- AUC(0-t) [1]: 224 ng·h/mL
- Cmax [1]: 72 ng/g

SMILES: Cc1ccc(F)c(-c2c(C(F)(F)F)cnn2C2CC3(C2)CN(C(=O)c2cc(O)ccc2F)C3)c1 (single isomer, unassigned) [Compound 474, (2-fluoro-5-hydroxyphenyl)(6-(5-(2-fluoro-5-methylphenyl)-4-(trifluoromethyl)-1H-pyrazol-1-yl)-2-azaspiro[3.3]heptan-2-yl)methanone]
- IC50 (human MAGL; [3]): 150 to 500 nM

SMILES: Cc1cc(C2CC3(C2)CN(C(=O)c2cc(O)ccc2F)C3)n(-c2ccccc2C)n1 [Compound 74, (2-fluoro-5-hydroxyphenyl)(6-(3-methyl-1-(o-tolyl)-1H-pyrazol-5-yl)-2-azaspiro[3.3]heptan-2-yl)methanone]
- AUClast ([1]; 30 mg/kg, Protocol A): 116.52 ng·h/mL

SMILES: Cc1ccc(F)cc1-c1cc(C2CC2)n(C2CC3(C2)CN(C(=O)c2cc(O)ccc2F)C3)n1 (single isomer, unassigned) [Compound 491, (6-(5-cyclopropyl-3-(5-fluoro-2-methylphenyl)-1H-pyrazol-1-yl)-2-azaspiro [3.3]heptan-2-yl)(2-fluoro-5-hydroxyphenyl)methanone]
- IC50 (human MAGL; [2]): < 50 nM

SMILES: O=C(c1cc(O)ccc1F)N1CC2(CC(n3ncc(C4CC4)c3-c3ccccc3F)C2)C1 (single isomer, unassigned) [Compound 492, (6-(4-Cyclopropyl-5-(2-fluorophenyl)-1H-pyrazol-1-yl)-2-azaspiro [3.3]heptan-2-yl) (2-fluoro-5-hydroxyphenyl) methanone]
- IC50 (human MAGL; [3]): 50 to 150 nM

SMILES: O=C(c1cc(O)ccc1F)N1CC2(CC(n3nccc3-c3ccccc3C(F)(F)F)C2)C1 (single isomer, unassigned) [Compound 526, (2-fluoro-5-hydroxyphenyl)(6-(5-(2-(trifluoromethyl)phenyl)-1H-pyrazol-1-yl)-2-azaspiro [3.3]heptan-2-yl)methanone]
- IC50 (human MAGL; [3]): 50 to 150 nM

SMILES: Cc1ccccc1-n1nccc1C1CC2(C1)CN(C(=O)c1cc(O)ccc1F)C2 [Compound 367, (2-fluoro-5-hydroxyphenyl) (6-(1-(o-tolyl)-1H-pyrazol-5-yl)-2-azaspiro [3.3]heptan-2-yl) methanone]
- IC50 (human MAGL; Method 14: Reaction Biology MAGL enzyme prep, 6 nM enzyme (Conc "0", Source "0")): 50 to 150 nM

SMILES: Cc1ccc(F)cc1-n1nc(C2CC3(C2)CN(C(=O)c2ccc(F)cc2OC2CC2)C3)cc1C (single isomer, unassigned) [Compound 482, (2-cyclopropoxy-4-fluorophenyl){6-[1-(5-fluoro-2-tolyl)-5-methyl-3-pyrazolyl]-2-aza-2-spiro[3.3]heptyl}methanone]
- IC50 (human MAGL; [3]): 500 to 1000 nM

SMILES: Cc1cc(C2CC3(C2)CN(C(=O)c2ccc(F)cc2OC2CC2)C3)n(-c2cc(F)ccc2C)n1 (single isomer, unassigned) [Compound 418, (2-cyclopropoxy-4-fluorophenyl){6-[1-(5-fluoro-2-tolyl)-3-methyl-5-pyrazolyl]-2-aza-2-spiro[3.3]heptyl}methanone]
- IC50 (human MAGL; [3]): 50 to 150 nM
